Laboratory results as given in patent US20260217701A1, “SELECTIVE BET INHIBITORS AND USES THEREOF” (Tay Therapeutics Limited, priority 2022, published 2026).
Marks after values point to notes of the source that are not given here.

Assays:
BET BD2 = test: Comparison with other BET inhibitors in development (EC50, selectivity, oral bioavailability; public information)
EAE study: body weight = format: in vivo, C57BI/6 mice; conditions: for Mean Body Weight Change (% of Day −1): mean end body weight
Protocol: Experimental Method H: EAE in animals treated with a BET inhibitor and vehicle. Animals were assigned to the groups outlined in Table 38.
Compound A may be formulated as illustrated in Experimental Method A (see Table 2E.). A 40 mg/mL stock solution of Compound A in DMSO was prepared and aliquots stored at −20° C. On each day of preparation an e.g., 0.75 mL aliquot of thawed stock was diluted with an equal volume of DMSO. The remaining vehicle components were added to provide the highest dose and then diluted with vehicle to provide lower doses. A 30 mg/mL stock solution of FTY720 in ethanol was prepared and stored at −20° C. Daily, the stock solution was diluted with room temperature water to a final dosing concentration of 0.6 mg/mL. Formulated Compound A, FTY720 and vehicle were each at room temperature for dosing.
Female C57BI/6 mice (9 weeks old) were acclimated for seven days prior to study initiation. On Day-1, animals were assigned to groups in a balanced manner to achieve similar average weights across the different groups. Chronic EAE was induced in female C57BI/6 mice following immunization with an emulsion of MOG35-55/CFA on Day 0, followed by an injection of pertussis toxin two hours after the initial immunization. On Day 1, a second injection of pertussis toxin was administered 24 hours after the initial immunization. Mice were injected subcutaneously at two sites on the back with the MOG35-55/CFA emulsion (Hooke Kit™ MOG35-55/CFA Emulsion PTX). The first injection site was located approximately 1 cm caudal of the neckline (upper back), and the second injection site was approximately 2 cm cranial of the base of the tail (lower back). The injection volume was 0.1 mL for each injection. The pertussis toxin was administered at the described times through intraperitoneal injection at a concentration of 85 ng/dose for both injections.
Body weight was measured three times a week (Monday, Wednesday, and Friday) starting on Day-1. Animals were scored daily for EAE starting on Day 7. In-between scores were assigned when the clinical signs fell between two below defined scores.

[1] = Compound A 1 mg/kg (Group 2), Day 0
[2] = Compound A 1 mg/kg (Group 2), Day 2
[3] = Compound A 1 mg/kg (Group 2), Day 5
[4] = Compound A 1 mg/kg (Group 2), Day 7
[5] = Compound A 1 mg/kg (Group 2), Day 9
[6] = Compound A 1 mg/kg (Group 2), Day 12
[7] = Compound A 1 mg/kg (Group 2), Day 14
[8] = Compound A 1 mg/kg (Group 2), Day 16
[9] = Compound A 1 mg/kg (Group 2), Day 19
[10] = Compound A 1 mg/kg (Group 2), Day 21
[11] = Compound A 1 mg/kg (Group 2), Day 23
[12] = Compound A 1 mg/kg (Group 2), Day 27
[13] = Compound A 1 mg/kg (Group 2), Day 28
[14] = Compound A 1 mg/kg (Group 2), Day −1
[15] = Compound A 3 mg/kg (Group 3), Day 0
[16] = Compound A 3 mg/kg (Group 3), Day 2
[17] = Compound A 3 mg/kg (Group 3), Day 5
[18] = Compound A 3 mg/kg (Group 3), Day 7
[19] = Compound A 3 mg/kg (Group 3), Day 9
[20] = Compound A 3 mg/kg (Group 3), Day 12
[21] = Compound A 3 mg/kg (Group 3), Day 14
[22] = Compound A 3 mg/kg (Group 3), Day 16
[23] = Compound A 3 mg/kg (Group 3), Day 19
[24] = Compound A 3 mg/kg (Group 3), Day 21
[25] = Compound A 3 mg/kg (Group 3), Day 23
[26] = Compound A 3 mg/kg (Group 3), Day 27
[27] = Compound A 3 mg/kg (Group 3), Day 28
[28] = Compound A 3 mg/kg (Group 3), Day −1
[29] = Compound A 10 mg/kg (Group 4), Day 0
[30] = Compound A 10 mg/kg (Group 4), Day 2
[31] = Compound A 10 mg/kg (Group 4), Day 5
[32] = Compound A 10 mg/kg (Group 4), Day 7
[33] = Compound A 10 mg/kg (Group 4), Day 9
[34] = Compound A 10 mg/kg (Group 4), Day 12
[35] = Compound A 10 mg/kg (Group 4), Day 14
[36] = Compound A 10 mg/kg (Group 4), Day 16
[37] = Compound A 10 mg/kg (Group 4), Day 19
[38] = Compound A 10 mg/kg (Group 4), Day 21
[39] = Compound A 10 mg/kg (Group 4), Day 23
[40] = Compound A 10 mg/kg (Group 4), Day 27
[41] = Compound A 10 mg/kg (Group 4), Day 28
[42] = Compound A 10 mg/kg (Group 4), Day −1

**Q.** What does the source list for Cn1cc(-c2ccccc2)c(-c2cn(C)c(=O)c3[nH]c(-c4cnn(C(F)(F)F)c4)cc23)cc1=O [Compound A, 6-methyl-4-(1-methyl-2-oxo-5-phenyl-1,2-dihydropyridin-4-yl)-2-(1-(trifluoromethyl)-1H-pyrazol-4-yl)-1,6-dihydro-7H-pyrrolo[2,3-c]pyridin-7-one]?
**A.** selectivity relative to other BET inhibitors (BET BD2; same comparators): higher selectivity; EC50 relative to other BET inhibitors (BET BD2; vs NUV-868, ABBV-744, GSK620, Pelabresib, ABBV-075, MK-8628/OTX-015, BI-894999): lower EC50; Relative end weight (% of the mean Day-1 weight) (EAE study: body weight; 1 mg/kg): 100.7%; Relative end weight (% of the mean Day-1 weight) (EAE study: body weight; 3 mg/kg): 103%; Relative end weight (% of the mean Day-1 weight) (EAE study: body weight; 10 mg/kg): 106%; Mean Body Weight (EAE study: body weight; [1]): 20.3 g; Mean Body Weight (% of Day −1) (EAE study: body weight; [1]): 100.7 % of Day −1; Mean Body Weight (EAE study: body weight; [2]): 19.8 g; Mean Body Weight (% of Day −1) (EAE study: body weight; [2]): 98.4 % of Day −1; Mean Body Weight (EAE study: body weight; [3]): 20.0 g; Mean Body Weight (% of Day −1) (EAE study: body weight; [3]): 99.0 % of Day −1; Mean Body Weight (EAE study: body weight; [4]): 20.1 g; Mean Body Weight (% of Day −1) (EAE study: body weight; [4]): 99.8 % of Day −1; Mean Body Weight (EAE study: body weight; [5]): 21.4 g; Mean Body Weight (% of Day −1) (EAE study: body weight; [5]): 105.3 % of Day −1; Mean Body Weight (EAE study: body weight; [6]): 20.7 g; Mean Body Weight (% of Day −1) (EAE study: body weight; [6]): 102.1 % of Day −1; Mean Body Weight (EAE study: body weight; [7]): 19.9 g; Mean Body Weight (% of Day −1) (EAE study: body weight; [7]): 98.4 % of Day −1; Mean Body Weight (EAE study: body weight; [8]): 19.4 g; Mean Body Weight (% of Day −1) (EAE study: body weight; [8]): 95.7 % of Day −1; Mean Body Weight (EAE study: body weight; [9]): 19.6 g; Mean Body Weight (% of Day −1) (EAE study: body weight; [9]): 96.8 % of Day −1; Mean Body Weight (EAE study: body weight; [10]): 20.3 g; Mean Body Weight (% of Day −1) (EAE study: body weight; [10]): 99.9 % of Day −1; Mean Body Weight (EAE study: body weight; [11]): 20.7 g; Mean Body Weight (% of Day −1) (EAE study: body weight; [11]): 102.0 % of Day −1; Mean Body Weight (EAE study: body weight; [12]): 20.4 g; Mean Body Weight (% of Day −1) (EAE study: body weight; [12]): 100.4 % of Day −1; Mean Body Weight (EAE study: body weight; [13]): 20.4 g; Mean Body Weight (% of Day −1) (EAE study: body weight; [13]): 100.7 % of Day −1; Mean Body Weight (EAE study: body weight; [14]): 20.1 g; Mean Body Weight (% of Day −1) (EAE study: body weight; [14]): 100.0 % of Day −1; Mean Body Weight Change (% of Day −1) (EAE study: body weight; Compound A 1 mg/kg): 100.7* % of Day −1; Mean Body Weight (EAE study: body weight; [15]): 20.3 g; Mean Body Weight (% of Day −1) (EAE study: body weight; [15]): 100.6 % of Day −1; Mean Body Weight (EAE study: body weight; [16]): 19.5 g; Mean Body Weight (% of Day −1) (EAE study: body weight; [16]): 96.7 % of Day −1; Mean Body Weight (EAE study: body weight; [17]): 19.6 g; Mean Body Weight (% of Day −1) (EAE study: body weight; [17]): 97.2 % of Day −1; Mean Body Weight (EAE study: body weight; [18]): 20.2 g; Mean Body Weight (% of Day −1) (EAE study: body weight; [18]): 100.0 % of Day −1; Mean Body Weight (EAE study: body weight; [19]): 20.5 g; Mean Body Weight (% of Day −1) (EAE study: body weight; [19]): 101.6 % of Day −1; Mean Body Weight (EAE study: body weight; [20]): 20.6 g; Mean Body Weight (% of Day −1) (EAE study: body weight; [20]): 102.1 % of Day −1; Mean Body Weight (EAE study: body weight; [21]): 20.0 g; Mean Body Weight (% of Day −1) (EAE study: body weight; [21]): 99.5 % of Day −1; Mean Body Weight (EAE study: body weight; [22]): 19.5 g; Mean Body Weight (% of Day −1) (EAE study: body weight; [22]): 96.9 % of Day −1; Mean Body Weight (EAE study: body weight; [23]): 19.5 g; Mean Body Weight (% of Day −1) (EAE study: body weight; [23]): 97.0 % of Day −1; Mean Body Weight (EAE study: body weight; [24]): 20.3 g; Mean Body Weight (% of Day −1) (EAE study: body weight; [24]): 101.5 % of Day −1; Mean Body Weight (EAE study: body weight; [25]): 20.8 g; Mean Body Weight (% of Day −1) (EAE study: body weight; [25]): 103.9 % of Day −1; Mean Body Weight (EAE study: body weight; [26]): 20.4 g; Mean Body Weight (% of Day −1) (EAE study: body weight; [26]): 101.8 % of Day −1; Mean Body Weight (EAE study: body weight; [27]): 20.6 g; Mean Body Weight (% of Day −1) (EAE study: body weight; [27]): 103.0 % of Day −1; Mean Body Weight (EAE study: body weight; [28]): 20.2 g; Mean Body Weight (% of Day −1) (EAE study: body weight; [28]): 100.0 % of Day −1; Mean Body Weight Change (% of Day −1) (EAE study: body weight; Compound A 3 mg/kg): 103.0*** % of Day −1; Mean Body Weight (EAE study: body weight; [29]): 20.5 g; Mean Body Weight (% of Day −1) (EAE study: body weight; [29]): 101.1 % of Day −1; Mean Body Weight (EAE study: body weight; [30]): 19.8 g; Mean Body Weight (% of Day −1) (EAE study: body weight; [30]): 97.9 % of Day −1; Mean Body Weight (EAE study: body weight; [31]): 20.0 g; Mean Body Weight (% of Day −1) (EAE study: body weight; [31]): 98.9 % of Day −1; Mean Body Weight (EAE study: body weight; [32]): 20.4 g; Mean Body Weight (% of Day −1) (EAE study: body weight; [32]): 101.0 % of Day −1; Mean Body Weight (EAE study: body weight; [33]): 20.6 g; Mean Body Weight (% of Day −1) (EAE study: body weight; [33]): 101.9 % of Day −1; Mean Body Weight (EAE study: body weight; [34]): 20.2 g; Mean Body Weight (% of Day −1) (EAE study: body weight; [34]): 99.9 % of Day −1; Mean Body Weight (EAE study: body weight; [35]): 19.6 g; Mean Body Weight (% of Day −1) (EAE study: body weight; [35]): 97.2 % of Day −1; Mean Body Weight (EAE study: body weight; [36]): 19.1 g; Mean Body Weight (% of Day −1) (EAE study: body weight; [36]): 94.7 % of Day −1; Mean Body Weight (EAE study: body weight; [37]): 20.0 g; Mean Body Weight (% of Day −1) (EAE study: body weight; [37]): 99.1 % of Day −1; Mean Body Weight (EAE study: body weight; [38]): 20.7 g; Mean Body Weight (% of Day −1) (EAE study: body weight; [38]): 102.3 % of Day −1; Mean Body Weight (EAE study: body weight; [39]): 21.1 g; Mean Body Weight (% of Day −1) (EAE study: body weight; [39]): 104.2 % of Day −1; Mean Body Weight (EAE study: body weight; [40]): 21.0 g; Mean Body Weight (% of Day −1) (EAE study: body weight; [40]): 104.0 % of Day −1; Mean Body Weight (EAE study: body weight; [41]): 21.4 g; Mean Body Weight (% of Day −1) (EAE study: body weight; [41]): 106.0 % of Day −1; Mean Body Weight (EAE study: body weight; [42]): 20.2 g; Mean Body Weight (% of Day −1) (EAE study: body weight; [42]): 100.0 % of Day −1; Mean Body Weight Change (% of Day −1) (EAE study: body weight; Compound A 10 mg/kg): 106.0*** % of Day −1
